Reference: patent US20240424019A1, “SHP1 MODIFIED DENDRITIC CELLS AND EXTRACELLULAR VESICLES DERIVED THEREFROM AND ASSOCIATED METHODS” (BOARD OF REGENTS, THE UNIVERSITY OF TEXAS SYSTEM, priority 2021, published 2024)

Key:
pY564-SHP1 = experiment: Reverse phase protein array (RPPA) of BMDCs; assay type: cell-based, mouse; settings: VitE 50 μg/ml, tumor conditioned media, 48 hours
Description: FIG. 3A: Volcano plot of reverse phase protein array (RPPA) data of mouse BMDCs treated with VitE (50 μg/ml) compared to those treated with vehicle control with tumor conditioned media (TCM) for 48 hours (n=3 independent samples). […] The grey dashed line indicates P-value of 0.05. FIG. 3B: t-SNEs by CyTOF and quantification comparing the intensity of pY564-SHP1 in TADCs from the vehicle-or VitE-treated EMT6 tumors at day 15 post-implantation. FIG. 3C: Top, SHP1 knockdown in BMDCs was effective. Bottom, CFSE-dilution analysis of OT-1 T cells co-cultured with OVA protein-pulsed BMDCs (ratio 10:1) with knockdown of SHP1 by siPtpn6 versus siCtrl (n=3). Right, quantification of OT-1 T-cell numbers under the indicated condition. FIG. 3D: The binding of VitE to purified SHP1 is analyzed by microscale thermophoresis (MST) binding assay. […] FIG. 3E: Relative tyrosine phosphatase activity of SHP1 immunoprecipitated from LPS (100 ng/ml)-activated DC2.4 cells in the presence of indicated doses of VitE (mean of triplicates). FIG. 3F: SHP1 tyrosine phosphatase activity in LPS (100 ng/ml)-activated BMDCs (n=6) treated with vehicle-or VitE (50 μg/ml). Error bars, s.e.m. ns, no significant. *P<0.05, **P<0.01. ***P<0.001, ****P<0.0001.
To explore the molecular mechanism of VitE on DCs function, we performed a reverse-phase protein array (RPPA) analysis on DCs. […]

4T1 tumors = experiment: Orthotopic 4T1 TNBC tumor model; assay type: in vivo, mouse
Description: FIG. 6A: Diagram of the experimental paradigm (top) and tumor growth curves (bottom) of orthotopic B16-GMCSF tumor in mice vaccinated with or without GVAX (s.c. at day 1, 4, 7), then treated with vehicle or VitE (50 mg/kg/day daily by oral gavage administration from day 4 to day 20) (n=6/group). FIG. 6B: Tumor weight of 4T1 tumors from mice treated with vehicle. GVAX, ICT (200 μg/mouse anti-PDI and 100 μg/mouse anti-CTLA4 by i.p. at day 7, 10, 13), or GVAX+ICT in combination with vehicle or VitE (50 mg/kg/day daily by oral gavage administration from day 4 to day 25) (n=4) at day 25 after tumor inoculation. FIG. 6C: Flow cytometric analysis (left) and quantification (right) of gp70 tetramer+CD8^+ T cells in 4T1 tumors at day 14 post-implantation with indicated treatments (n=5/group). FIG. 6D: Kaplan-Meier survival curve of 4T1 tumor-bearing mice treated with vehicle, low dosage of Doxorubicin (Dox, 5 mg/kg by i.v.). ICT (200 μg/mouse anti-PD1 and 100 μg/mouse anti-CTLA4 by i.p. at day 7, 10, 13). or Dox+ICT along with vehicle or VitE (n=10). FIG. 6E: Measurement of maximal tumor diameter in HY1936 KPC tumor-bearing mice treated with gemcitabine (GEM, 25 mg/kg by i.p.) and ICT (anti-PDI/anti-CTLA4) along with vehicle or VitE (n=5). FIG. 6F: Kaplan-Meier survival curve of HY19636 KPC tumor-bearing mice treated with vehicle, GEM (gemcitabine, 25 mg/kg by i.p.), GEM+ICT (anti-PDI/anti-CTLA4) plus vehicle or VitE (n=6). Error bars, s.e.m. ns, no significant. *P<0.05. ***P<0.001, ****P<0.0001.
Syngeneic orthotopic PDAC tumors were established by surgical implantation.
Control groups received vehicle (PBS) without the active product.
Where indicated, mice were vaccinated subcutaneously on their contralateral flank with either PBS or 1.0×10^6 35 Gy-irradiated GM-CSF-secreting B16 cells or GM-CSF-secreting 4T1 cells (GVAX) on days 1, 4, and 7 post-tumor injections.
For chemo combination treatment, HY19636 KPC tumor-bearing mice were treated with gemcitabine (GEM) at 25 mg/kg body weight by i.p. injection once a week from day 7 and 4T1 TNBC tumor-bearing mice were given with doxorubicin (Dox, 5 mg/kg body weight) by i.v. once a week from day 10. The chemotherapeutic doses and schedules used in this study are below or within the range of the concentrations used in the clinic after converting drug doses between species.

[1] = doxorubicin+ICT+VitE vs doxorubicin+ICT

Cc1c(C)c2c(c(C)c1O)CC[C@@](C)(CCC[C@H](C)CCC[C@H](C)CCCC(C)C)O2 [VitE, D-α-Tocopherol]
phosphorylation of SHP1 at Y564 in DCs (pY564-SHP1): decreased the phosphorylation at tyrosine 564 (Y564) | antitumor effect (tumor weight) (4T1 tumors; VitE 50 mg/kg/day combined with GVAX+ICT): significantly enhanced the antitumor effect | gp70 tetramer-specific CD8+ T cells in tumor (4T1 tumors; VitE added to doxorubicin+ICT): increased the infiltration of tumor-infiltrating gp70) tetramer-specific CD8^+ T cells | survival (4T1 tumors; [1]): substantially prolonged the survival | tumor growth and lung metastasis (4T1 tumors; [1]): inhibited tumor growth and lung metastasis
